# Source: PubChem BioAssay (NCI)
#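 Each compound was tested at five concentrations against cells in 96-well plates for 48 hours. Here, GI50 denotes the concentration required for 50% inhibition of growth. TGI: concentration producing complete growth inhibition.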
# Columns and labels:
# Test in all cases: NCI anticancer screen, dose series, 48 h
# MOLT-4 leukemia = tested on: MOLT-4 leukemia
# TK-10 renal = tested on: TK-10 renal
# OVCAR-4 ovarian = tested on: OVCAR-4 ovarian
# CAKI-1 renal = tested on: CAKI-1 renal
# CCRF-CEM leukemia = tested on: CCRF-CEM leukemia
# HOP-92 NSCLC = tested on: HOP-92 NSCLC
# SR leukemia = tested on: SR leukemia
# DU-145 prostate = tested on: DU-145 prostate
# NCI-H460 lung = tested on: NCI-H460 lung
# RXF 393 renal = tested on: RXF 393 renal
smiles,measurement,setting,value
O=C(c1ccco1)c1c(C(F)(F)F)nc2ccc(Cl)cc2[n+]1[O-],GI50,MOLT-4 leukemia,> 100 µM
same,TGI,MOLT-4 leukemia,> 100 µM
same,GI50,TK-10 renal,> 100 µM
same,TGI,TK-10 renal,> 100 µM
same,GI50,OVCAR-4 ovarian,> 100 µM
same,TGI,OVCAR-4 ovarian,> 100 µM
same,GI50,CAKI-1 renal,26.6 µM
same,TGI,CAKI-1 renal,85.8 µM
same,GI50,CCRF-CEM leukemia,> 100 µM
same,TGI,CCRF-CEM leukemia,> 100 µM
same,GI50,HOP-92 NSCLC,44 µM
same,TGI,HOP-92 NSCLC,> 100 µM
same,GI50,SR leukemia,86.6 µM
same,TGI,SR leukemia,> 100 µM
same,GI50,DU-145 prostate,> 100 µM
same,TGI,DU-145 prostate,> 100 µM
same,GI50,NCI-H460 lung,> 100 µM
same,TGI,NCI-H460 lung,> 100 µM
same,GI50,RXF 393 renal,70.3 µM
same,TGI,RXF 393 renal,> 100 µM
